Assays:
[1] = molecular target: T1, Serine/threonine-protein kinase TAO3 (Homo sapiens) (UniProt Q9H2K8); experiment: Selectivity interaction (KinomeScan (DiscoverX)) EUB0000695a TAOK3; conditions: at 100 nM
T1 sequence (whole entry): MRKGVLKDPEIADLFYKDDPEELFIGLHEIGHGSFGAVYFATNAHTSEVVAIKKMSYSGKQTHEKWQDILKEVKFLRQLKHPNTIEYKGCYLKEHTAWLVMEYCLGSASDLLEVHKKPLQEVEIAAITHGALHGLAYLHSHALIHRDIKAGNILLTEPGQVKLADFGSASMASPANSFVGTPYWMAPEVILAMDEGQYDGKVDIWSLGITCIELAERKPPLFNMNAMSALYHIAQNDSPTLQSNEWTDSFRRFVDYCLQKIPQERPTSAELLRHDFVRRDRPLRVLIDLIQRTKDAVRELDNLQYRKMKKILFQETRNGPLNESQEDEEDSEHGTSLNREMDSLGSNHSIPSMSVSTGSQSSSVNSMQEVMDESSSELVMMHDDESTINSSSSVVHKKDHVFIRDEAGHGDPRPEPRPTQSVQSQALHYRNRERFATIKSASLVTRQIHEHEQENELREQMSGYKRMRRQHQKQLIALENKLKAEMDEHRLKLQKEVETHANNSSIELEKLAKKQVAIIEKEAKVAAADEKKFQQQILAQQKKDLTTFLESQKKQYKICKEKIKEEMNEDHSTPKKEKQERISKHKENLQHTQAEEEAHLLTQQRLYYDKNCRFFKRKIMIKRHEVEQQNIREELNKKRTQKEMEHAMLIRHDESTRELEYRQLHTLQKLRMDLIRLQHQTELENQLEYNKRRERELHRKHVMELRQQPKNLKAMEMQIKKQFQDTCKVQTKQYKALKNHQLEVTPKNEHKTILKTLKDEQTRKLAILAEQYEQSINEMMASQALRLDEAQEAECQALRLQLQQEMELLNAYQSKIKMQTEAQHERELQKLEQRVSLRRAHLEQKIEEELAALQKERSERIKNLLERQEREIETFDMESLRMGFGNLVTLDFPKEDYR

[2] = molecular target: Mitogen-activated protein kinase kinase kinase kinase 5 (Homo sapiens) (UniProt Q9Y4K4); conditions: at 10 µM
[3] = molecular target: T2, Calcium/calmodulin-dependent protein kinase type IV (Homo sapiens) (UniProt Q16566); experiment: Selectivity interaction (Ambit KINOMEscan and KiNATiv profiling in Jurkat cells) EUB0000090b CAMK4; assay type: cell-based; conditions: at 1 µM
T2 sequence (whole entry): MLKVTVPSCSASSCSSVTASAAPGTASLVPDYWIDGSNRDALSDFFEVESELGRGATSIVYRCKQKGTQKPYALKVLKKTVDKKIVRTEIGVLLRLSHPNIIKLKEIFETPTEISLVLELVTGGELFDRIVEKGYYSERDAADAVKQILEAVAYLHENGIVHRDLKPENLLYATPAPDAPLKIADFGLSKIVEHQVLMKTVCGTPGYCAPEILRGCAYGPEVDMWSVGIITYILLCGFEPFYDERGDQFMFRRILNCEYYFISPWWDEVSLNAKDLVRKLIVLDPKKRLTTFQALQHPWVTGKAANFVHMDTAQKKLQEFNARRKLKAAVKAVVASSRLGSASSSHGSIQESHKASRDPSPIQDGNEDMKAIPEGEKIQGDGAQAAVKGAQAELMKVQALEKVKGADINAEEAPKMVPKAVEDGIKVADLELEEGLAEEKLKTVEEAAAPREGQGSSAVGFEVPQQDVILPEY

[4] = molecular target: T3, Phosphatidylinositol 5-phosphate 4-kinase type-2 gamma (Homo sapiens) (UniProt Q8TBX8); experiment: Selectivity interaction (KinomeScan (DiscoverX)) EUB0000045b PIP4K2C; conditions: at 1 µM
T3 sequence (whole entry): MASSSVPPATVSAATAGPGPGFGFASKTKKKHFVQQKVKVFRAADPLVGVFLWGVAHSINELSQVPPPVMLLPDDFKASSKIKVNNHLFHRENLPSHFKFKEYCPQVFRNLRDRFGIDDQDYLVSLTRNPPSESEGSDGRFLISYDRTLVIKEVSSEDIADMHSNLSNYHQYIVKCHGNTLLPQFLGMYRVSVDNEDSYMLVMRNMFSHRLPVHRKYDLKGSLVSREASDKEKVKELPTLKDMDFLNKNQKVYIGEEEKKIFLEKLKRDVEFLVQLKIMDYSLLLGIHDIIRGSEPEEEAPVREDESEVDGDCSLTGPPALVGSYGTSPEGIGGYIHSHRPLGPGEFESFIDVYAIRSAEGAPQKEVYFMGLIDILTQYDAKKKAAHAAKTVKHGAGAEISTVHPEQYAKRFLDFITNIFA

[5] = molecular target: T4, Dual specificity mitogen-activated protein kinase kinase 6 (Homo sapiens) (UniProt P52564); experiment: Selectivity interaction (ActivX KiNativ screen (ex vivo kinase selectivity in human PBMCs)) EUB0001619a MAP2K6; assay type: cell-based; conditions: PBMC, at 1 µM
T4 sequence (whole entry): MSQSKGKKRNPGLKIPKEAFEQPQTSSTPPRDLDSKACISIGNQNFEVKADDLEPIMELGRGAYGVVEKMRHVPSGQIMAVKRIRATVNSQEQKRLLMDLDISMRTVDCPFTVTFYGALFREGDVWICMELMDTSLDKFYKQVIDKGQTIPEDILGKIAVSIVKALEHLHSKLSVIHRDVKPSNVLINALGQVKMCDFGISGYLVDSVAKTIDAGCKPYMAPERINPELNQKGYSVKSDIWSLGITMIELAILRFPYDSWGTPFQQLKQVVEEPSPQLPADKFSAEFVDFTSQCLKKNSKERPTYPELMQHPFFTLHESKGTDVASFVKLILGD

Mitogen-activated protein kinase kinase kinase kinase 5 (Homo sapiens), sequence (Q9Y4K4 whole entry, looked up): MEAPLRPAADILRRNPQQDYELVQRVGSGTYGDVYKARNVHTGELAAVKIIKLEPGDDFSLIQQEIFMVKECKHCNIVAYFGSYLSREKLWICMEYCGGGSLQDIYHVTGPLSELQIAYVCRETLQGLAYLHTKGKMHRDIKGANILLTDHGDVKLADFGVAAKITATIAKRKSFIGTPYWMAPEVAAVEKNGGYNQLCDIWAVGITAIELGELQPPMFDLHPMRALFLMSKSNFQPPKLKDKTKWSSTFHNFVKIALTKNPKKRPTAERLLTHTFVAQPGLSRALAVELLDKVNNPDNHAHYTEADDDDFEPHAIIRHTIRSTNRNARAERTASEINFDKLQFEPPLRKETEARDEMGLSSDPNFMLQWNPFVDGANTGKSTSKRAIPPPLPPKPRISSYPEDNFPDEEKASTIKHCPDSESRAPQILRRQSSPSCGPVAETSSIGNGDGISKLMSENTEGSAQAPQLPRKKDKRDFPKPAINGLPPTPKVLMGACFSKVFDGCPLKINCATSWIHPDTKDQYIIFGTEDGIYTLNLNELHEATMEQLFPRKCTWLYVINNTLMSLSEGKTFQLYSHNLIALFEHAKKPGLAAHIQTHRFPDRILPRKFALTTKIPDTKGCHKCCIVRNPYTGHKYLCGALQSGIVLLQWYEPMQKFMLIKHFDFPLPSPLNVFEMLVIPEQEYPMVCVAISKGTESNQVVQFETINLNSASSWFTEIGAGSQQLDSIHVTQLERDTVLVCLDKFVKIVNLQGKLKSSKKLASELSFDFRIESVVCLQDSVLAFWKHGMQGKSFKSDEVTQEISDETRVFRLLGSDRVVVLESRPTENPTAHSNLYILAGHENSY

Work on `Cc1cc(F)c(C(=O)Nc2cccc(-c3nncn3C(C)C)n2)cc1-n1cnc(C2CC2)c1` yielded a % of control [1] of 100%.

`COCC(=O)NC/C=C/c1ccc2ncnc(Nc3ccc(Oc4ccc(C)nc4)c(C)c3)c2c1` [CP-724714] showed a % of control [2] of 86%.

With `CN(C)C/C=C/C(=O)Nc1ccc(C(=O)N2CCCC(Nc3ncc(Cl)c(-c4c[nH]c5ccccc45)n3)C2)cc1` (stereo not given) the % of control [3] was 69%.

`C=CC(=O)Nc1cc(-n2c(=O)ccc3cnc4ccc(-c5ccc(NS(C)(=O)=O)cc5)cc4c32)ccc1C` showed a % of control [4] of 5.6%.

With `N#Cc1cccc(-c2c[nH]c3ncnc(N4CCOCC4)c23)c1` the % of inhibition [5] was 14%.

Source: ChEMBL document CHEMBL5465560, “Selectivity Literature for EUbOPEN Chemogenomic Library” (2024)
